The values that follow come from paper PMC2860192 (ACS chemical neuroscience, 2010).

Common to all, as to format: cell-based
Test [1] has as its target GluR6 (GluR6(R), edited version), homomeric KA-type receptor (Rattus norvegicus, UniProt P42260, Q621R). Briefly: two-electrode voltage clamp, Xenopus oocytes, block of kainate current.
Test [2] has as its system AMPA receptors expressed by rat cerebral cortex mRNA. The test is described as above. The settings on record: competitive antagonist; 100 μM kainate; −80 mV; pH 7.4; 19–21°C.
For test [3], the system named is metabotropic glutamate receptors (mGluRs, group I) expressed by rat brain mRNA. The settings on record: antagonist test, 10 μM quisqualate in the cerebellum mRNA test.
In test [4] the target is T1, GluR3 (GluR3o, flop variant), homomeric AMPA-type receptor (Rattus norvegicus, UniProt P19492). In words: two-electrode voltage clamp, Xenopus oocytes, block of kainate current. A general note: In two-electrode clamp one electrode senses voltage and the other passes current.
Test [5] concerns the target T1, GluR3 (GluR3o, flop variant), homomeric AMPA-type receptor. In words: two-electrode voltage clamp, Xenopus oocytes, agonist-evoked current. The settings on record: 100 μM, −80 mV, pH 7.4.

Each structure is given as a SMILES string. Some results are limits rather than exact numbers.

Chain of GluR6 (GluR6(R), edited version), homomeric KA-type receptor (P42260 32-908 Q621R): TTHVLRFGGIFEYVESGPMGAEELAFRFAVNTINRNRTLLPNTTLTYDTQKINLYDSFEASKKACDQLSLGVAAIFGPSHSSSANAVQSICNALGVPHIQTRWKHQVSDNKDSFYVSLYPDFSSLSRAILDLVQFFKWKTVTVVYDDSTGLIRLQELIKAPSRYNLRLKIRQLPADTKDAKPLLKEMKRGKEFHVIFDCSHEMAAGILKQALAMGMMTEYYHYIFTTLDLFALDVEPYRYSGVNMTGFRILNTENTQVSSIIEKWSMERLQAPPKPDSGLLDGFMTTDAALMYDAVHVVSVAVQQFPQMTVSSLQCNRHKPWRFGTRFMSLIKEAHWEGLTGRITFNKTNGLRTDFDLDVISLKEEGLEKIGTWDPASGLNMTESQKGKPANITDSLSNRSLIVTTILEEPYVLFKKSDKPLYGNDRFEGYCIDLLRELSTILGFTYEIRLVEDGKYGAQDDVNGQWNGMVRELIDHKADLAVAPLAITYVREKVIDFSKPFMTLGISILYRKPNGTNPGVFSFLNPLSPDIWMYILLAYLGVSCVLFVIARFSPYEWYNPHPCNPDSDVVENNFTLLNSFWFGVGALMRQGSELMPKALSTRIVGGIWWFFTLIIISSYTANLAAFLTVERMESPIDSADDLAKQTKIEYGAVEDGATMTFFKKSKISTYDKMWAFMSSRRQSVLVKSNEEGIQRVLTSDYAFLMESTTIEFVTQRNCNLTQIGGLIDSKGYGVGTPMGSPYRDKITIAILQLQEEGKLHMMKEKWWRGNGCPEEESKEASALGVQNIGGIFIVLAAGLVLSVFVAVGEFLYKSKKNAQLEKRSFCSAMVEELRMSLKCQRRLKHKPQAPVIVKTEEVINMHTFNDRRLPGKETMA

`N[C@@H](C(=O)O)[C@H](O)[C@@]1(C(=O)O)CC[C@H](C[C@H](NC(=O)c2cc(Cl)c(O)c(Cl)c2)C(=O)O)N1` [(−)-kaitocephalin]: the half-inhibitory concentration (IC50) in test [1] is about 100000 nM; in test [2], 242 ± 37 nM; in test [3] it was over 100000 nM; in test [4] it was 502 ± 55 nM.
As to `C=C(C)[C@H]1CN[C@H](C(=O)O)[C@H]1CC(=O)O` [kainate], the “two-electrode voltage clamp, Xenopus oocytes, agonist-evoked current” value in test [5] is listed as “GluR3 receptors, similarly to the AMPA receptors expressed by mRNA, generated large KA-currents”.

For orientation: IC50 means the concentration at which inhibition is half-maximal. Higher therefore signals lower potency.
